Experimental findings from patent US11583516B2, “Dash inhibitors, and uses related thereto” (Trustees of Tufts College, priority 2016, dated 2023) are described below.

As usually defined, the EC50 is the concentration at which the effect is half-maximal. Lower therefore signals higher potency in that assay.

Like-named read-outs stand apart in the source and are kept apart here. Where only a bound is given, the exact number is not on record here.

In one assay the test system is CT26 cells. Nature of the assay: CT26 cell viability. It counts as cell-based.
For another assay, the system named is G-CSF. Nature of the assay: Serum cytokine induction in mice (G-CSF screen). It counts as in vivo, BALB/c mice. The text has this: No. MKC00B) • IL-18 (R&D Systems, Cat. […] Systems, Cat. No. […])
The next assay has as its system MB49 tumor. Nature of the assay: MB49 efficacy studies. It counts as in vivo, C57BL/6 mice. The settings on record: celecoxib alone, various concentrations.

Take `NC(N)=NCCC[C@H](N)C(=O)N1CCC[C@H]1B(O)O` [Arg-boroPro]: in the assay on CT26 cells, the EC50 is above 1000 µM.
As for `C[C@H](N)C(=S)N1CCC[C@H]1B(O)O` [ARI-2243], the “Average [G-CSF] at 6 hrs” value is reported as 330 pg/mL with G-CSF (20 μg/animal PO), 2100 pg/mL with G-CSF (50 μg/animal IP), 2400 pg/mL in the assay with G-CSF (100 μg/animal IP) and 4400 pg/mL with G-CSF (300 μg/animal IP). The EC50 with CT26 cells is above 1000 µM.
For the compound `N[C@@H](CC(=O)N1CCn2c(nnc2C(F)(F)F)C1)Cc1cc(F)c(F)cc1F` [Sitagiptin, Sitagliptin], the entries for the “Average [G-CSF] at 6 hrs” value with G-CSF (200 μg/animal SC), with G-CSF (1000 μg/animal PO) and in the assay on G-CSF (2000 μg/animal SC) were 100 pg/mL, 340 pg/mL and 950 pg/mL, respectively.
The compound `CC(C)C[C@H](NC(=O)[C@H](Cc1ccccc1)NC(=O)c1cnccn1)B(O)O` [Bortezomib] yielded an EC50 in the assay with CT26 cells (Mus musculus, CT26) of 0.036 µM.
For `Cc1ccc(-c2cc(C(F)(F)F)nn2-c2ccc(S(N)(=O)=O)cc2)cc1` [celecoxib], in the assay on MB49 tumor, the Tumor growth rate result is reported as “no observed differences in tumor growth rates compared to control”.
For the compound `N[C@@H](CCC(=O)O)C(=O)N1CCC[C@H]1B(O)O` [Glu-boroPro], the “Average [G-CSF] at 6 hrs” value in the assay with G-CSF (20 μg/animal PO) is listed as 340 pg/mL; with G-CSF (200 μg/animal PO), 160 pg/mL; in the assay on G-CSF (200 μg/animal SC) it was 210 pg/mL; in the assay with G-CSF (2000 μg/animal PO), 2300 pg/mL; in the assay with G-CSF (2000 μg/animal SC) it was 16000 pg/mL. The compound also gave an EC50 in the assay with CT26 cells above 1000 µM.
